Measurements published in patent US8501770B2 (ArQule, Inc., priority 2009, dated 2013).

What follows are compounds tested against Full-length inactive AKT1 (Homo sapiens, UniProt P31749) (assay: Inactive Akt Alpha Screen Assay). Conditions: values not marked with "*"; read-out: Akt1 IC50, (AlphaScreen).
Format: biochemical
Protocol: AKT1 activity was assayed using the GSK3-derived biotinylated peptide substrate, crosstide (biotin-[…]), and AlphaScreen™ (Amplified Luminescent Proximity Homogeneous Assay) technology. AKT1 activation was achieved by the addition of the activating kinases PDK1 and MAPKAPK2, lipid vesicles, and ATP. The extent of peptide phosphorylation was determined using a phospho-AKT substrate antibody and acceptor beads conjugated to Protein A and donor beads conjugated to streptavidin that bind to the biotin on the peptide. Excitation of the donor beads converted ambient oxygen to excited singlet oxygen which, when in close proximity to acceptor beads, reacted with acceptor beads resulting in signal amplification.
Assay plates were incubated for 90 minutes at room temperature in the dark, and the plates were read on a Perkin Elmer Envision Multilabel plate reader (excitation wavelength: […], emission wavelength: 570 nm).

Chain of Full-length inactive AKT1 (P31749 whole entry): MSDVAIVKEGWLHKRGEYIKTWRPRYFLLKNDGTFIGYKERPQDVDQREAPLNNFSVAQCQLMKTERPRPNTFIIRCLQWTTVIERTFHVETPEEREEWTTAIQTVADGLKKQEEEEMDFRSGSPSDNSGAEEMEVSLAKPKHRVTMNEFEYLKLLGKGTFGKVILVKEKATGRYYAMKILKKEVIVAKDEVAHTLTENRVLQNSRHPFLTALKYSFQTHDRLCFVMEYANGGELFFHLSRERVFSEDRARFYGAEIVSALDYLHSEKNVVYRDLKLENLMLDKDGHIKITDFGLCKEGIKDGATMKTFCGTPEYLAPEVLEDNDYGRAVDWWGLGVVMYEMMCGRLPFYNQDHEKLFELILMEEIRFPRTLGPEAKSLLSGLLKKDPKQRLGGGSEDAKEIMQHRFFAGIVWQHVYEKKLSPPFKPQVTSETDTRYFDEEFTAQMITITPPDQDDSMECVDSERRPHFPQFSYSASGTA

IC50 [nM] | Structure (SMILES)
1900 | COc1cccc(NC(=O)c2ccc(-n3c(-c4cccnc4N)nc4cccnc43)cc2)c1 [Example 184, 4-[2-(2-aminopyridin-3-yl)-3H-imidazo[4,5-b]pyridin-3-yl]-N-(3-methoxyphenyl)benzamide]
2500 | COc1ccc(NC(=O)c2ccc(-n3c(-c4cccnc4N)nc4cccnc43)cc2)cc1F [Example 185, 4-[2-(2-aminopyridin-3-yl)-3H-imidazo[4,5-b]pyridin-3-yl]-N-(3-fluoro-4-methoxyphenyl)benzamide]
2500 | Cc1ccc(NC(=O)c2ccc(-n3c(-c4cccnc4N)nc4cccnc43)cc2)cc1 [Example 186, 4-[2-(2-aminopyridin-3-yl)-3H-imidazo[4,5-b]pyridin-3-yl]-N-(4-methylphenyl)benzamide]
2100 | Nc1ncccc1-c1nc2cc(C(F)(F)F)cnc2n1-c1ccc(CNC(=O)c2ccc(Br)cc2)cc1 [Example 187, N-{4-[2-(2-aminopyridin-3-yl)-6-(trifluoromethyl)-3H-imidazo[4,5-b]pyridin-3-yl]benzyl}-4-bromobenzamide]
360 | Nc1ncccc1-c1nc2cc(C(F)(F)F)cnc2n1-c1ccc(CNC(=O)c2cccc(F)c2)cc1 [Example 188, N-{4-[2-(2-aminopyridin-3-yl)-6-(trifluoromethyl)-3H-imidazo[4,5-b]pyridin-3-yl]benzyl}-3-fluorobenzamide]
110 | Cc1ccnc2c1nc(-c1cccnc1N)n2-c1ccc(CNC(=O)c2cccc(F)c2)cc1 [Example 190, N-(4-(2-(2-aminopyridin-3-yl)-7-methyl-3H-imidazo[4,5-b]pyridin-3-yl)benzyl)-3-fluorobenzamide]
1100 | Nc1ncccc1-c1nc2ccc(N3CCCCC3)nc2n1-c1ccc(CNC(=O)c2ccc(Br)cc2)cc1 [Example 191, N-(4-(2-(2-aminopyridin-3-yl)-5-(piperidin-1-yl)-3H-imidazo[4,5-b]pyridin-3-yl)benzyl)-4-bromobenzamide]
200 | Nc1ncccc1-c1nc2ccc(N3CCCCC3)nc2n1-c1ccc(CNC(=O)c2ccccc2)cc1 [Example 192, N-(4-(2-(2-aminopyridin-3-yl)-5-(piperidin-1-yl)-3H-imidazo[4,5-b]pyridin-3-yl)benzyl)benzamide]
62 | CC(=O)Nc1ccc(NC(=O)Cc2ccc(-n3c(-c4cccnc4N)nc4cc(C)cnc43)cc2)cc1 [Example 193, N-(4-acetamidophenyl)-2-(4-(2-(2-aminopyridin-3-yl)-6-methyl-3H-imidazo[4,5-b]pyridin-3-yl)phenyl)acetamide]
47 | Cc1cnc2c(c1)nc(-c1cccnc1N)n2-c1ccc(CC(=O)Nc2ccc3nc(C)ccc3c2)cc1 [Example 194, 2-(4-(2-(2-aminopyridin-3-yl)-6-methyl-3H-imidazo[4,5-b]pyridin-3-yl)phenyl)-N-(2-methylquinolin-6-yl)acetamide]
76 | Cc1cnc2c(c1)nc(-c1cccnc1N)n2-c1ccc(CC(=O)Nc2ccccc2)cc1 [Example 195, 2-(4-(2-(2-aminopyridin-3-yl)-6-methyl-3H-imidazo[4,5-b]pyridin-3-yl)phenyl)-N-phenylacetamide]
140 | CS(=O)(=O)NCc1ccc(-n2c(-c3cccnc3N)nc3cc(-c4cccnc4)cnc32)cc1 [Example 196, N-(4-(2-(2-aminopyridin-3-yl)-6-(pyridin-3-yl)-3H-imidazo[4,5-b]pyridin-3-yl)benzyl)methanesulfonamide]
47 | CC(=O)Nc1ccc(-c2cnc3c(c2)nc(-c2cccnc2N)n3-c2ccc(CNC(=O)c3ccccc3)cc2)cc1 [Example 197, N-(4-(6-(4-acetamidophenyl)-2-(2-aminopyridin-3-yl)-3H-imidazo[4,5-b]pyridin-3-yl)benzyl)benzamide]
61 | Nc1ncccc1-c1nc2ccc(Cl)nc2n1-c1ccc(CNC(=O)c2ccccc2)cc1 [Example 198, N-(4-(2-(2-aminopyridin-3-yl)-5-chloro-3H-imidazo[4,5-b]pyridin-3-yl)benzyl)benzamide]
200 | Nc1ncccc1-c1nc2cc(C(F)(F)F)cnc2n1-c1ccc(CNC(=O)c2ccccc2)cc1 [Example 199, N-(4-(2-(2-aminopyridin-3-yl)-6-(trifluoromethyl)-3H-imidazo[4,5-b]pyridin-3-yl)benzyl)benzamide]
74 | Nc1ncccc1-c1nc2cc(-c3cccnc3)cnc2n1-c1ccc(CNS(=O)(=O)c2ccccc2)cc1 [Example 200, N-(4-(2-(2-aminopyridin-3-yl)-6-(pyridin-3-yl)-3H-imidazo[4,5-b]pyridin-3-yl)benzyl)benzenesulfonamide]
32 | Nc1ncccc1-c1nc2ccc(-c3cccnc3)nc2n1-c1ccc(CNC(=O)c2ccccc2)cc1 [Example 201, N-(4-(2-(2-aminopyridin-3-yl)-5-(pyridin-3-yl)-3H-imidazo[4,5-b]pyridin-3-yl)benzyl)benzamide]

IC50 [nM] | Structure (SMILES)
27 | Nc1ncccc1-c1nc2ccc(-c3ccccc3)nc2n1-c1ccc(CNC(=O)c2ccccc2)cc1 [Example 202, N-(4-(2-(2-aminopyridin-3-yl)-5-phenyl-3H-imidazo[4,5-b]pyridin-3-yl)benzyl)benzamide]
81 | Nc1ncccc1-c1nc2ccc(Cl)nc2n1-c1ccc(CNC(=O)c2cccc(F)c2)cc1 [Example 203, N-(4-(2-(2-aminopyridin-3-yl)-5-chloro-3H-imidazo[4,5-b]pyridin-3-yl)benzyl)-3-fluorobenzamide]
7.3 | CC(=O)Nc1cccc(-c2ccc3nc(-c4cccnc4N)n(-c4ccc(CNC(=O)c5cccc(F)c5)cc4)c3n2)c1 [Example 204, N-(4-(5-(3-acetamidophenyl)-2-(2-aminopyridin-3-yl)-3H-imidazo[4,5-b]pyridin-3-yl)benzyl)-3-fluorobenzamide]
59 | Nc1ncccc1-c1nc2cc(-c3cccnc3)cnc2n1-c1ccc(CNS(=O)(=O)C2CC2)cc1 [Example 205, N-(4-(2-(2-aminopyridin-3-yl)-6-(pyridin-3-yl)-3H-imidazo[4,5-b]pyridin-3-yl)benzyl)cyclopropanesulfonamide]
130 | COc1ccc(S(=O)(=O)NCc2ccc(-n3c(-c4cccnc4N)nc4cc(-c5cccnc5)cnc43)cc2)cc1 [Example 206, N-(4-(2-(2-aminopyridin-3-yl)-6-(pyridin-3-yl)-3H-imidazo[4,5-b]pyridin-3-yl)benzyl)-4-methoxybenzenesulfonamide]
60 | Nc1ncccc1-c1nc2cc(-c3cccnc3)cnc2n1-c1ccc(CNS(=O)(=O)c2ccc(Cl)cc2)cc1 [Example 207, N-(4-(2-(2-aminopyridin-3-yl)-6-(pyridin-3-yl)-3H-imidazo[4,5-b]pyridin-3-yl)benzyl)-4-chlorobenzenesulfonamide]
180 | CC(C)(C)OC(=O)NCc1ccc(-n2c(-c3cccnc3N)nc3ccc(-c4ccncc4)nc32)cc1 [Example 208, tert-butyl 4-(2-(2-aminopyridin-3-yl)-5-(pyridin-4-yl)-3H-imidazo[4,5-b]pyridin-3-yl)benzylcarbamate]
210 | Cc1ccnc2c1nc(-c1cccnc1N)n2-c1ccc(CNC(=O)c2ccccc2)cc1 [Example 210, N-(4-(2-(2-aminopyridin-3-yl)-7-methyl-3H-imidazo[4,5-b]pyridin-3-yl)benzyl)benzamide]
61 | Cc1cnc2c(c1)nc(-c1cccnc1N)n2-c1ccc(CNC(=O)c2cccc(N(C)C)c2)cc1 [Example 211, N-(4-(2-(2-aminopyridin-3-yl)-6-methyl-3H-imidazo[4,5-b]pyridin-3-yl)benzyl)-3-(dimethylamino)benzamide]
200 | Cc1cnc2c(c1)nc(-c1cccnc1N)n2-c1ccc(CNC(=O)c2cn(C)c3ccccc23)cc1 [Example 212, N-(4-(2-(2-aminopyridin-3-yl)-6-methyl-3H-imidazo[4,5-b]pyridin-3-yl)benzyl)-1-methyl-1H-indole-3-carboxamide]
480 | Cc1cnc2c(c1)nc(-c1cccnc1N)n2-c1ccc(CNC(=O)CCC2CCCCC2)cc1 [Example 213, N-(4-(2-(2-aminopyridin-3-yl)-6-methyl-3H-imidazo[4,5-b]pyridin-3-yl)benzyl)-3-cyclohexylpropanamide]
23 | Cc1cnc2c(c1)nc(-c1cccnc1N)n2-c1ccc(CNC(=O)c2ccccc2-n2cccc2)cc1 [Example 214, N-(4-(2-(2-aminopyridin-3-yl)-6-methyl-3H-imidazo[4,5-b]pyridin-3-yl)benzyl)-2-(1H-pyrrol-1-yl)benzamide]
730 | Cc1cnc2c(c1)nc(-c1cccnc1N)n2-c1ccc(CNC(=O)C2Cc3ccccc3C2)cc1 [Example 215, N-(4-(2-(2-aminopyridin-3-yl)-6-methyl-3H-imidazo[4,5-b]pyridin-3-yl)benzyl)-2,3-dihydro-1H-indene-2-carboxamide]
77 | Cc1cccc(C(=O)NCc2ccc(-n3c(-c4cccnc4N)nc4cc(C)cnc43)cc2)c1 [Example 216, N-(4-(2-(2-aminopyridin-3-yl)-6-methyl-3H-imidazo[4,5-b]pyridin-3-yl)benzyl)-3-methylbenzamide]
84 | Cc1cnc2c(c1)nc(-c1cccnc1N)n2-c1ccc(CNC(=O)c2ccc(Cl)cc2F)cc1 [Example 217, N-(4-(2-(2-aminopyridin-3-yl)-6-methyl-3H-imidazo[4,5-b]pyridin-3-yl)benzyl)-4-chloro-2-fluorobenzamide]
63 | Cc1cnc2c(c1)nc(-c1cccnc1N)n2-c1ccc(CNC(=O)c2ccccc2Cl)cc1 [Example 218, N-(4-(2-(2-aminopyridin-3-yl)-6-methyl-3H-imidazo[4,5-b]pyridin-3-yl)benzyl)-2-chlorobenzamide]
